Like-named read-outs stand apart in the source and are kept apart here. Non-standard residues stand in square brackets, D forms with d. Residues, ends and D or L forms follow the SMILES beside them. β3hE = N[C@@H](CCC(=O)O)CC(=O)O; β3hQ = NC(=O)CC[C@H](N)CC(=O)O; β3hD = NC(CC(=O)O)CC(=O)O; β3hS = N[C@@H](CO)CC(=O)O Some results are limits rather than exact numbers.

For assay [1], the target named is T1, p300–Flu-HIF-1α (Homo sapiens, UniProt Q09472).
T1 construct: from residues 330-420 (used for FA and ITC experiments); GST (N, cleaved yes); made in house; host or cells: p300: E. coli BL21 pLysS (pGEX-4T-1); tracer peptide: solid-phase synthesis
T1 sequence (Q09472 330-420): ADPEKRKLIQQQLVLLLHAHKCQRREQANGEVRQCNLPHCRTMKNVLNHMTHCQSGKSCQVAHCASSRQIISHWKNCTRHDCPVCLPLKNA
Briefly: Fluorescence anisotropy competition against p300–Flu-HIF-1α. The format is binding. Background: In fluorescence polarisation assays a small probe gives low polarisation when free and higher when bound to something large.

The target in assay [2] is T2, p300_330–420 (TAZ1 domain) (Homo sapiens, UniProt Q09472).
T2 construct: from residues 330-420 (used for FA and ITC experiments); GST (N, cleaved yes); made in house; host or cells: E. coli BL21 pLysS (pGEX-4T-1)
T2 sequence (Q09472 330-420): as above
Briefly: ITC direct titration to p300. The format is binding. The conditions noted are these: 35 °C.

Where [3] appears, read: 5 µM p300_330–420 in cell, 60 µM ligand in syringe, 40 mM Na-phosphate pH 7.5, 100 mM NaCl, 1 mM DTT, global fit with ternary intermediate model, 68% confidence intervals in brackets, read-out: Direct binding to p300, K d.
Where [4] appears, read: 50 nM p300_330–420, 25 nM Flu-HIF-1α786–826 tracer, 40 mM Na-phosphate, 100 mM NaCl, 1 mM DTT, 0.01% Triton-X, pH 7.4, 10 min at 35 °C, fixed KD = 64 nM for tracer, three repeats, read-out: Kd,app FA competition against p300–Flu-HIF-1α.

As to `CC[C@H](C)[C@H](NC(=O)[C@@H]1CCCN1C(=O)[C@H](C)NC(=O)[C@H](CC(N)=O)NC(=O)[C@@H](NC(=O)[C@H](CCC(=O)O)NC(=O)[C@H](CS)NC(=O)[C@H](CC(=O)O)NC(=O)[C@H](Cc1ccc(O)cc1)NC(=O)[C@H](CO)NC(=O)[C@@H](NC(=O)[C@H](CC(C)C)NC(=O)[C@H](CCC(N)=O)NC(=O)[C@@H]1CCCN1C(=O)[C@H](CC(C)C)NC(=O)CNC(=O)[C@H](CO)NC(=O)[C@H](CCC(=O)O)NC(=O)[C@H](CC(=O)O)NC(=O)[C@H](CCSC)NC(=O)[C@H](CO)NC(=O)CCCCCNC(=O)c1ccc2c(c1)C(=O)OC21c2ccc(O)cc2Oc2cc(O)ccc21)[C@@H](C)O)C(C)C)C(=O)N[C@@H](CCC(N)=O)C(=O)NCC(=O)N[C@@H](CO)C(=O)N[C@@H](CCCNC(=N)N)C(=O)N[C@@H](CC(N)=O)C(=O)N[C@@H](CC(C)C)C(=O)N[C@@H](CC(C)C)C(=O)N[C@@H](CCC(N)=O)C(=O)NCC(=O)N[C@@H](CCC(=O)O)C(=O)N[C@@H](CCC(=O)O)C(=O)N[C@@H](CC(C)C)C(=O)N[C@@H](CC(C)C)C(=O)N[C@@H](CCCNC(=N)N)C(=O)N[C@@H](C)C(=O)N[C@@H](CC(C)C)C(=O)N[C@@H](CC(=O)O)C(=O)N[C@@H](CCC(N)=O)C(=O)N[C@H](C(=O)N[C@@H](CC(N)=O)C(N)=O)C(C)C` [Flu-HIF-1α], the Kd in assay [1] (determined by FA competition with HIF-1α776–826 as competitor (competitor KD 50 ± 8 nM from ITC), 50 nM p300, 25 nM tracer, 35 °C, read-out: KD of the fluorescent tracer for p300) was 0.064 µM.
For the compound “Ac-IDTDFIDEEVLMSLVIEMGLDRIKELPELWLGQNEFDFM-NH2 [CITED2_218–256]”, the Kd worked out at 0.011 µM in assay [2] (setting [3]); 0.002 ± 0.0009 µM in assay [1] (as other FA competition values, average and standard deviation of two individual titrations (Fig. 2 and Fig. S11), SD, read-out: Kd,app FA competition against p300–Flu-HIF-1α).
For the compound `CC[C@H](C)[C@H](NC(C)=O)C(=O)N[C@@H](CC(=O)O)C(=O)N[C@H](C(=O)N[C@@H](CC(=O)O)C(=O)N[C@@H](Cc1ccccc1)C(=O)N[C@H](C(=O)N[C@@H](CC(=O)O)C(=O)N[C@@H](CCC(=O)O)C(=O)N[C@@H](CCC(=O)O)C(=O)N[C@H](C(=O)N[C@@H](CC(C)C)C(=O)N[C@@H](CCSC)C(=O)N[C@@H](CO)C(=O)N[C@@H](CC(C)C)C(=O)N[C@H](C(=O)N[C@H](C(=O)N[C@@H](CCC(=O)O)C(=O)N[C@@H](CCSC)C(=O)NCC(=O)N[C@@H](CC(C)C)C(=O)N[C@@H](CC(=O)O)CC(=O)N[C@@H](CCCNC(=N)N)C(=O)N[C@H](C(=O)N[C@@H](CCCCN)C(=O)N[C@@H](CCC(=O)O)CC(=O)N[C@@H](CC(C)C)C(=O)N1CCC[C@H]1C(=O)N[C@@H](CCC(=O)O)CC(=O)N[C@@H](CC(C)C)C(=O)N[C@@H](Cc1c[nH]c2ccccc12)C(=O)N[C@@H](CC(C)C)C(=O)NCC(=O)N[C@@H](CCC(N)=O)C(=O)N[C@@H](CC(N)=O)C(=O)N[C@@H](CCC(=O)O)C(=O)N[C@@H](Cc1ccccc1)C(=O)N[C@@H](CC(=O)O)C(=O)N[C@@H](Cc1ccccc1)C(=O)N[C@@H](CCSC)C(N)=O)[C@@H](C)CC)[C@@H](C)CC)C(C)C)C(C)C)[C@@H](C)CC)[C@@H](C)O` [3a] (Ac-IDTDFIDEEVLMSLVIEMGL[β3hD]RIK[β3hE]LP[β3hE]LWLGQNEFDFM-NH2), the Kd in assay [2] (setting [3]) is 0.675 µM; in assay [1] (setting [4]), more than 0.6 µM.
Taken in the same sequence, the figures for “Ac-DEEVLMSLVIEMGLDRIKELPELWLGQNEFDFM-NH2 [CITED2ΔN]” were 0.051 µM and 0.086 ± 0.005 µM.
Take `CC[C@H](C)[C@H](NC(=O)[C@@H]1CCCN1C(=O)[C@H](C)NC(=O)[C@H](CC(N)=O)NC(=O)[C@@H](NC(=O)[C@H](CCC(=O)O)NC(=O)[C@H](CS)NC(=O)[C@H](CC(=O)O)NC(=O)[C@H](Cc1ccc(O)cc1)NC(=O)[C@H](CO)NC(=O)[C@@H](NC(=O)[C@H](CC(C)C)NC(=O)[C@H](CCC(N)=O)NC(=O)[C@@H]1CCCN1C(=O)[C@H](CC(C)C)NC(=O)CNC(=O)[C@H](CO)NC(=O)[C@H](CCC(=O)O)NC(=O)[C@H](CC(=O)O)NC(=O)[C@H](CCSC)NC(=O)[C@H](CO)NC(=O)[C@H](CCC(N)=O)NC(=O)CNC(=O)[C@H](CC(C)C)NC(=O)[C@H](CC(C)C)NC(=O)[C@H](CCCNC(=N)N)NC(=O)[C@H](CS)NC(=O)[C@H](C)NC(=O)[C@H](CC(C)C)NC(=O)[C@H](CC(=O)O)NC(=O)[C@H](CO)NC(C)=O)[C@@H](C)O)C(C)C)C(=O)N[C@@H](CCC(N)=O)C(=O)NCC(=O)N[C@@H](CO)C(=O)N[C@@H](CCCNC(=N)N)C(=O)N[C@@H](CC(N)=O)C(=O)N[C@@H](CC(C)C)C(=O)N[C@@H](CC(C)C)C(=O)N[C@@H](CCC(N)=O)C(=O)NCC(=O)N[C@@H](CCC(=O)O)C(=O)N[C@@H](CCC(=O)O)C(=O)N[C@@H](CC(C)C)C(=O)N[C@@H](CC(C)C)C(=O)N[C@@H](CCCNC(=N)N)C(=O)N[C@@H](C)C(=O)N[C@@H](CC(C)C)C(=O)N[C@@H](CC(=O)O)C(=O)N[C@@H](CCC(N)=O)C(=O)N[C@H](C(=O)N[C@@H](CC(N)=O)C(N)=O)C(C)C` [HIF-1α776–826]: the Kd in assay [2] (5 µM protein in cell, 60 µM peptide in syringe, 40 mM Na-phosphate, 100 mM NaCl, 1 mM DTT pH 7.4, average of three independent measurements, read-out: KD of HIF-1α776-826 binding to p300) amounted to 0.05 ± 0.008 µM; in assay [1] (setting [4]) it was 0.057 ± 0.004 µM.
`CC[C@H](C)[C@H](NC(C)=O)C(=O)N[C@@H](CC(=O)O)C(=O)N[C@H](C(=O)N[C@@H](CC(=O)O)C(=O)N[C@@H](Cc1ccccc1)C(=O)N[C@H](C(=O)N[C@@H](CC(=O)O)C(=O)N[C@@H](CCC(=O)O)C(=O)N[C@@H](CCC(=O)O)C(=O)N[C@H](C(=O)N[C@@H](CC(C)C)C(=O)N[C@@H](CCSC)C(=O)N[C@@H](CO)C(=O)N[C@@H](CC(C)C)C(=O)N[C@H](C(=O)N[C@H](C(=O)N[C@@H](CCC(=O)O)C(=O)N[C@@H](CCSC)C(=O)NCC(=O)N[C@@H](CC(C)C)C(=O)N[C@@H](CC(=O)O)CC(=O)N[C@H](C(=O)N[C@@H](CCC(=O)O)CC(=O)N[C@@H](CC(C)C)C(=O)N1CCC[C@H]1C(=O)N[C@@H](CCC(=O)O)C(=O)N[C@@H](CC(C)C)C(=O)N[C@@H](Cc1c[nH]c2ccccc12)C(=O)N[C@@H](CC(C)C)C(=O)NCC(=O)N[C@@H](CCC(N)=O)C(=O)N[C@@H](CC(N)=O)C(=O)N[C@@H](CCC(=O)O)C(=O)N[C@@H](Cc1ccccc1)C(=O)N[C@@H](CC(=O)O)C(=O)N[C@@H](Cc1ccccc1)C(=O)N[C@@H](CCSC)C(N)=O)[C@@H](C)CC)[C@@H](C)CC)C(C)C)C(C)C)[C@@H](C)CC)[C@@H](C)O` [3c] (Ac-IDTDFIDEEVLMSLVIEMGL[β3hD]I[β3hE]LPELWLGQNEFDFM-NH2): the Kd in assay [2] (setting [3]) stood at 0.029 µM; in assay [1] (setting [4]) it was 0.076 ± 0.006 µM.
Taken in the same sequence, the figures for `CC[C@H](C)[C@H](NC(C)=O)C(=O)N[C@@H](CC(=O)O)C(=O)N[C@H](C(=O)N[C@@H](CC(=O)O)C(=O)N[C@@H](Cc1ccccc1)C(=O)N[C@H](C(=O)N[C@@H](CC(=O)O)C(=O)N[C@@H](CCC(=O)O)C(=O)N[C@@H](CCC(=O)O)CC(=O)N[C@H](C(=O)N[C@@H](CC(C)C)C(=O)N[C@@H](CCSC)C(=O)N[C@@H](CO)CC(=O)N[C@@H](CC(C)C)C(=O)N[C@H](C(=O)N[C@H](C(=O)N[C@@H](CCC(=O)O)CC(=O)N[C@@H](CCSC)C(=O)NCC(=O)N[C@@H](CC(C)C)C(=O)N[C@@H](CC(=O)O)C(=O)N[C@@H](CCCNC(=N)N)C(=O)N[C@H](C(=O)N[C@@H](CCCCN)C(=O)N[C@@H](CCC(=O)O)C(=O)N[C@@H](CC(C)C)C(=O)N1CCC[C@H]1C(=O)N[C@@H](CCC(=O)O)C(=O)N[C@@H](CC(C)C)C(=O)N[C@@H](Cc1c[nH]c2ccccc12)C(=O)N[C@@H](CC(C)C)C(=O)NCC(=O)N[C@@H](CCC(N)=O)C(=O)N[C@@H](CC(N)=O)C(=O)N[C@@H](CCC(=O)O)C(=O)N[C@@H](Cc1ccccc1)C(=O)N[C@@H](CC(=O)O)C(=O)N[C@@H](Cc1ccccc1)C(=O)N[C@@H](CCSC)C(N)=O)[C@@H](C)CC)[C@@H](C)CC)C(C)C)C(C)C)[C@@H](C)CC)[C@@H](C)O` [compound 2] (Ac-IDTDFIDE[β3hE]VLM[β3hS]LVI[β3hE]MGLDRIKELPELWLGQNEFDFM-NH2) were 0.016 µM and 0.0049 ± 0.0008 µM.
Taken in the same sequence, the figures for `CC[C@H](C)[C@H](NC(C)=O)C(=O)N[C@@H](CC(=O)O)C(=O)N[C@H](C(=O)N[C@@H](CC(=O)O)C(=O)N[C@@H](Cc1ccccc1)C(=O)N[C@H](C(=O)N[C@@H](CC(=O)O)C(=O)N[C@@H](CCC(=O)O)C(=O)N[C@@H](CCC(=O)O)C(=O)N[C@H](C(=O)N[C@@H](CC(C)C)C(=O)N[C@@H](CCSC)C(=O)N[C@@H](CO)C(=O)N[C@@H](CC(C)C)C(=O)N[C@H](C(=O)N[C@H](C(=O)N[C@@H](CCC(=O)O)C(=O)N[C@@H](CCSC)C(=O)NCC(=O)N[C@@H](CC(C)C)C(=O)N[C@@H](CC(=O)O)C(=O)N[C@@H](CCCNC(=N)N)C(=O)N[C@H](C(=O)N[C@@H](CCCCN)C(=O)N[C@@H](CCC(=O)O)C(=O)N[C@@H](CC(C)C)C(=O)N1CCC[C@H]1C(=O)N[C@@H](CCC(=O)O)C(=O)N[C@@H](CC(C)C)C(=O)N[C@@H](Cc1c[nH]c2ccccc12)C(=O)N[C@@H](CC(C)C)C(=O)NCC(=O)N[C@@H](CCC(N)=O)CC(=O)N[C@@H](CC(N)=O)C(=O)N[C@@H](CCC(=O)O)CC(=O)N[C@@H](Cc1ccccc1)C(=O)N[C@@H](CC(=O)O)CC(=O)N[C@@H](Cc1ccccc1)C(=O)N[C@@H](CCSC)C(N)=O)[C@@H](C)CC)[C@@H](C)CC)C(C)C)C(C)C)[C@@H](C)CC)[C@@H](C)O` [compound 4] (Ac-IDTDFIDEEVLMSLVIEMGLDRIKELPELWLG[β3hQ]N[β3hE]F[β3hD]FM-NH2) were 0.017 µM and 0.0017 ± 0.0007 µM.

The values are drawn from paper PMC11289882, “Site-directed allostery perturbation to probe the negative regulation of hypoxia inducible factor-1α” (RSC Chemical Biology, 2024).
